Experiments:
Assay type in all cases: cell-based
HT29 cells = experiment: Cellular uptake of Pt by ICP-MS; conditions: for Intracellular Concentration: HT29, 3 µM; for Intracellular/extracellular ratio: HT29, extracellular 3 µM
Method: (§1) A final concentration of 10^6 cells/well of MDA−MB−231 and HT29 cells were seeded in 6-well plates and incubated overnight to adhere. The cells were then treated with a final concentration of 3 µM of either Pt^II or Pt^IV complexes. After 0, 0.5, 1, 3, 6, 12, 24 or 30 h, the medium was removed, and the cells were washed three times with cold PBS and allowed to dry. Then, 400 µL of 69% HNO3 (Baseline grade nitric acid with PPB level reported impurities, Seastar Chemicals, Sidney, BC, Canada) was added to each well for 90 min to ensure complete digestion. […] Iridium 193 (^193Ir) was mixed online and introduced into the ICP-MS to check uptake efficiency and matrix interference. All ICP-MS parameters are described in Table S2 and elaborated in Method S3. The results represent an average of three different experiments run in triplicate (±SEM) and expressed as nmol/10^6 cells or µM/cell. Quantification of the cellular uptake of Pt was based on external standards (Certified Standard from Sigma-Aldrich, VIC, Australia) containing Internal standard Ir.
(§2) Method S3. Cellular Uptake of Platinum(II) and (IV) complexes
(§3) A final concentration of 10^6 cells/well of MDA−MB−231 and HT29 cells were seeded in 6-well plates and incubated overnight to adhere. The cells were then treated with a final concentration of 3 µM of either PtII or PtIV complexes. After 0, 0.5, 1, 3, 6, 12, 24 or 30 h, the medium was removed, and the cells were washed three times with cold PBS and allowed to dry. Then, 400 µL of 69% HNO3 (Baseline grade nitric acid with Instrument Quality Grade Nitric acid with ppb level reported impurities, Seastar Chemicals, Sidney, Canada) was added to each well for 90 mins to ensure complete digestion. The digests were then moved to trace -metal free 15 mL centrifuge tubes […]
(§4) concentration of 3.5-4%. Iridium 193 (193Ir), selected as internal standard, has similar first ionisation potential and mass to Platinum 195 (195Pt). A concentration of 50 ppb 193Ir in 2% HNO3 solution was chosen for the Perkin Elmer NexION® Inductively Coupled Plasma Mass Spectrometer (ICP-MS) as it produced a steady state signal intensity of 600-800K counts per second. Mixing and injection of sample and internal standard solution was carried out using an ESI 7 port Valve system (Elemental Scientific, USA). A high-quality Solvent Flex 2 stop pump with 0.38 mm ID tubing was used in conjunction with the ICP-MS’s Peristaltic pump set at 20 […]
(§5) standard both, at 0.25 mL/min) being 0.5 mL/min. The ICP-MS was tuned to high sensitivity settings to facilitate detection of low Pt concentrations in samples. This was done by adjusting the nebuliser gas flow between […] to achieve maximum Indium 115 intensity whilst maintaining an acceptable average oxide and doubly charged ratio of 1.64-2.24% and 1.17-1.69% respectively. The analysis method was set to peak hopping mode with a dwell time of […] and 45 sweeps through the mass spectrum per sample read. […]
(§6) peak integration time of 4500 milliseconds and enabled the collection of numerous data points for peak integration thereby increasing accuracy. The ICP-MS was tuned daily, and its performance optimised to a set of suppliers recommended settings. Analysis was only carried out when optimal oxide and doubly charged ratios with high ionic sensitivity was achieved. All ICP-MS parameters are described in Table S2. The results represent an average of three different experiments run in triplicates (± SEM) and expressed as nmol/106 cells or µM/cell. Quantification of the cellular uptake of Pt was based on external standards (Certified Standard from Sigma-Aldrich NSW, Australia) containing Internal standard Ir. […]

MDA−MB−231 cells = experiment: Cellular uptake of Pt by ICP-MS; conditions: for Intracellular Concentration: MDA−MB−231, 3 µM; for Intracellular/extracellular ratio: MDA−MB−231, extracellular 3 µM
Method: as §1, §2, §3, §4, §5, §6

HT29 spheroids = experiment: 3D bioprinted spheroid cytotoxicity (WST-1); conditions: 72 h, mean ± SEM
Text: (§7) To evaluate the cytotoxic effect of platinum(II) and (IV) complexes in 3D cell culture, MDA−MB−231 or HT29 cells were used to bioprint networks or spheroids with the non-contact drop-on-demand 3D RASTRUM bioprinter (Inventia Life Science, Alexandria, NSW, Australia). The 3D cultures use two constituents: bioink and activator. Cell pellets (2 × 10^6 cells) were resuspended in an activator reagent which forms an instant gel after its addition to the bioink by the bioprinter. The 3D large plug cell model with polyethylene glycol bioinks formulated to mimic the properties of in vivo tissue were chosen as follows. Matrix Px02.31 (activator F177 and bioink F242 with RGD: Fibronectin) was used for MDA−MB−231 3D embedded networks, Px02.00 (activator F177 and bioink F119 without RGD additives, Table S1) was used for MDA−MB−231 spheroids and matrix #Px02.09 (activator F177 and bioink F236 with adhesion peptides including, RGD: Fibronectin, and GFOGER: collagen type I to recapitulate rich in vivo tissue extracellular environments) was used for HT29 spheroids (Inventia Life Science) (Table S1). Each cell line was printed at 10,000 cells/well and loaded with the bioink fluids into the selected printer cartridge. After the automated priming of all fluids into the printer nozzles, each cell line was individually printed on tissue culture plates (Nunc^TM MicroWell^TM 96-Well, Nunclon Delta-Treated, Flat-Bottom Microplate, ThermoFisher #167008), with RASTRUM creating the 3D Large Plug across the 96-well plate. Following completion of the print run, 200 μL DMEM culture medium was added to each well using multichannel pipettes. The plate was then incubated for 7 days (humidified incubator with 5% CO2 at 37 °C) for compact and homogenous spheroid formation before the cytotoxicity assay. When the spheroids developed, post-7-day incubation, media was removed and replaced with 100 µL DMEM. […] Cytotoxicity was then assessed using the WST-1 assay as previously described in Section 2.3.

MDA−MB−231 spheroids = experiment: 3D bioprinted spheroid cytotoxicity (WST-1); conditions: 72 h, mean ± SEM
Text: as §7

MDA−MB−231 3D networks = experiment: 3D bioprinted culture cytotoxicity (WST-1); conditions: 72 h, mean ± SEM
Text: as §7

SMILES | Intracellular Concentration (HT29 cells; 0 h) [nmol/10^6 cells] | Intracellular Concentration (HT29 cells; 0.5 h) [nmol/10^6 cells] | Intracellular Concentration (HT29 cells; 1 h) [nmol/10^6 cells] | Intracellular Concentration (HT29 cells; 3 h) [nmol/10^6 cells] | Intracellular Concentration (HT29 cells; 6 h) [nmol/10^6 cells] | Intracellular Concentration (HT29 cells; 12 h) [nmol/10^6 cells] | Intracellular Concentration (HT29 cells; 24 h) [nmol/10^6 cells] | Intracellular Concentration (HT29 cells; 30 h) [nmol/10^6 cells] | Intracellular Concentration (MDA−MB−231 cells; 0 h) [nmol/10^6 cells] | Intracellular Concentration (MDA−MB−231 cells; 0.5 h) [nmol/10^6 cells] | Intracellular Concentration (MDA−MB−231 cells; 1 h) [nmol/10^6 cells] | Intracellular Concentration (MDA−MB−231 cells; 3 h) [nmol/10^6 cells] | Intracellular Concentration (MDA−MB−231 cells; 6 h) [nmol/10^6 cells] | Intracellular Concentration (MDA−MB−231 cells; 12 h) [nmol/10^6 cells] | Intracellular Concentration (MDA−MB−231 cells; 24 h) [nmol/10^6 cells] | Intracellular Concentration (MDA−MB−231 cells; 30 h) [nmol/10^6 cells] | IC50 (HT29 spheroids) [µM] | IC50 (MDA−MB−231 spheroids) [µM] | IC50 (MDA−MB−231 3D networks) [µM] | other results
N.N.[Cl][Pt][Cl] [Cisplatin, cisplatin] | 0.36 | 0.94 | 0.14 | 0.28 | 0.10 | 0.57 | 1.02 | 0.71 | 0.56 | 0.15 | 0.14 | 0.12 | 0.18 | 0.19 | 0.24 | 1.29 | 445 ± 5.09 | 48.5 ± 1.62 | 16 ± 1.49 | 
Cc1cc2cccnc2c2ncccc12.N[C@H]1CCCC[C@@H]1N.O=[N+]([O-])[O-].O=[N+]([O-])[O-].[Pt+2] [Pt^II5MESS, [Pt(5-methyl-1,10-phenanthroline)(1S,2S-diaminocyclohexane)](NO3)2] | 0.28 | 0.79 | 1.26 | 2.75 | 4.65 | 19.18 | 21.18 | 21.24 | 0.37 | 0.44 | 0.39 | 0.98 | 1.25 | 4.82 | 5.64 | 7.63 | 2.91 ± 1.39 | 4.08 ± 1.37 | 2.04 ± 1.31 | Intracellular/extracellular ratio (HT29 cells; 0 h): 44.37; Intracellular/extracellular ratio (HT29 cells; 0.5 h): 125.00; Intracellular/extracellular ratio (HT29 cells; 1 h): 197.63; Intracellular/extracellular ratio (HT29 cells; 3 h): 431.44; Intracellular/extracellular ratio (HT29 cells; 6 h): 730.89; Intracellular/extracellular ratio (HT29 cells; 12 h): 3013.21; Intracellular/extracellular ratio (HT29 cells; 24 h): 3327.94; Intracellular/extracellular ratio (HT29 cells; 30 h): 3337.20; Intracellular/extracellular ratio (MDA−MB−231 cells; 0 h): 57.65; Intracellular/extracellular ratio (MDA−MB−231 cells; 0.5 h): 69.63; Intracellular/extracellular ratio (MDA−MB−231 cells; 1 h): 61.30; Intracellular/extracellular ratio (MDA−MB−231 cells; 3 h): 154.59; Intracellular/extracellular ratio (MDA−MB−231 cells; 6 h): 196.09; Intracellular/extracellular ratio (MDA−MB−231 cells; 12 h): 757.65; Intracellular/extracellular ratio (MDA−MB−231 cells; 24 h): 885.63; Intracellular/extracellular ratio (MDA−MB−231 cells; 30 h): 1199.77

Source: article PMC11274883, “Anticancer Effect of Pt^[sequence], Pt^II5MESS, Pt^II56MESS and Their Platinum(IV)-Dihydroxy Derivatives against Triple-Negative Breast Cancer and Cisplatin-Resistant Colorectal Cancer” (Cancers, 2024)
